Measured values reported in PubChem BioAssay (NCI).
Where “and” joins values, the source holds several entries; their conditions need not be identical. Identical values can stand only once.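 These data come from cells grown in 96-well plates and exposed to compound for 48 hours at five concentrations. At the GI50, growth is halved. Definition used: TGI = concentration required for complete inhibition of growth.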

Legend:
Assay in all cases: NCI tumour cell line growth inhibition, 48 h
DLD-1 colon = test system: DLD-1 colon
KM20L2 colon = test system: KM20L2 colon
DMS 273 small cell lung = test system: DMS 273 small cell lung
DMS 114 small cell lung = test system: DMS 114 small cell lung
RXF-631 renal = test system: RXF-631 renal
M19-MEL melanoma = test system: M19-MEL melanoma
T-47D breast = test system: T-47D breast
MDA-MB-231 breast = test system: MDA-MB-231 breast
MDA-MB-435 = test system: MDA-MB-435
DU-145 prostate = test system: DU-145 prostate
MCF7 breast = test system: MCF7 breast

## O=[N+]([O-])c1cccnc1S(=O)(=O)c1ccccc1
DLD-1 colon
  TGI: 7.27 µM
KM20L2 colon
  TGI: 30.3 µM
DMS 273 small cell lung
  TGI: 21.3 µM
DMS 114 small cell lung
  TGI: 8.53 µM
RXF-631 renal
  TGI: 8.01 µM
M19-MEL melanoma
  TGI: 27.3 µM

## CCc1c(OC(C)=O)c2c(NC3OC(COC(C)=O)C(OC(C)=O)C(OC(C)=O)C3OC(C)=O)nc(SC)nc2oc1=O (centres undefined)
DLD-1 colon
  TGI: > 100 µM
KM20L2 colon
  TGI: > 100 µM
DMS 114 small cell lung
  TGI: > 100 µM
RXF-631 renal
  TGI: > 100 µM
M19-MEL melanoma
  TGI: > 100 µM

## COc1ccccc1/C=C(\NC(=O)c1ccccc1)c1nc2ccc(Cl)cc2[nH]1
DLD-1 colon
  TGI: 88.9 µM
KM20L2 colon
  TGI: > 100 µM
DMS 273 small cell lung
  TGI: > 100 µM
DMS 114 small cell lung
  TGI: 52.7 µM
M19-MEL melanoma
  TGI: > 100 µM

## O=C1C2C(C(=O)N1Cc1ccccc1)N(Cc1ccccc1)C(=O)N2Cc1ccccc1 (centres undefined)
DLD-1 colon
  TGI: > 100 µM
KM20L2 colon
  TGI: > 100 µM
DMS 114 small cell lung
  TGI: > 100 µM
RXF-631 renal
  TGI: > 100 µM
M19-MEL melanoma
  TGI: > 100 µM

## CCCCCCCCCCCCCCCC(=O)OCC1OC(n2cc(F)c(=O)[nH]c2=O)C(NC(=O)OCc2ccccc2)C(O)C1O (centres undefined)
KM20L2 colon
  TGI: 41.9 µM
DMS 273 small cell lung
  TGI: 32.4 µM
DMS 114 small cell lung
  TGI: 33.4 µM
RXF-631 renal
  TGI: 34.9 µM
M19-MEL melanoma
  TGI: 40.5 µM

## C[n+]1cn(CC(=O)c2ccccc2)c(C(N)=O)c1N
DLD-1 colon
  TGI: > 100 µM
KM20L2 colon
  TGI: > 100 µM
DMS 273 small cell lung
  TGI: > 100 µM
DMS 114 small cell lung
  TGI: 64.6 µM
RXF-631 renal
  TGI: > 100 µM
M19-MEL melanoma
  TGI: 63.2 µM

## C/C(=N\NC(=S)N1CCC1)c1ccccn1
T-47D breast
  GI50: 0.0395 µM
  TGI: > 100 µM
DLD-1 colon
  TGI: > 100 µM
MDA-MB-231 breast
  TGI: > 100 µM
MDA-MB-435
  GI50: 0.357 µM
  TGI: 73.7 µM
KM20L2 colon
  TGI: > 100 µM
DU-145 prostate
  TGI: > 100 µM
DMS 273 small cell lung
  TGI: 1.82 µM
RXF-631 renal
  TGI: > 64.6 µM
MCF7 breast
  TGI: 0.00635 µM
M19-MEL melanoma
  TGI: > 100 µM

## C=C1C(=O)O[C@@H]2C[C@@]3(C)[C@H](O)CCC(=C)[C@@H]3C[C@H]12
DLD-1 colon
  TGI: 16.5 µM
KM20L2 colon
  TGI: 20.3 µM
DMS 273 small cell lung
  TGI: 27.4 µM
DMS 114 small cell lung
  TGI: 42.2 µM
RXF-631 renal
  TGI: 28.1 µM
M19-MEL melanoma
  TGI: 32.9 µM

## Cc1ccc(-n2nc(C(OC3OC(CO)C(O)C(O)C3O)C(O)CO)c3nc4cc(C)c(C)cc4nc32)cc1 (centres undefined)
DLD-1 colon
  TGI: > 100 µM
KM20L2 colon
  TGI: > 100 µM
DMS 114 small cell lung
  TGI: > 100 µM
RXF-631 renal
  TGI: > 100 µM
M19-MEL melanoma
  TGI: > 100 µM

## O=C(O)c1ccccc1C(=O)c1ccco1
DLD-1 colon
  TGI: > 100 µM
KM20L2 colon
  TGI: > 100 µM
DMS 273 small cell lung
  TGI: > 100 µM
DMS 114 small cell lung
  TGI: > 100 µM
M19-MEL melanoma
  TGI: > 100 µM

## O=c1c2ccccc2nc(-c2cccc(Cl)c2)n1NC1OC(CO)C(O)C(O)C1O (centres undefined)
KM20L2 colon
  TGI: > 100 µM
DMS 273 small cell lung
  TGI: > 100 µM
DMS 114 small cell lung
  TGI: > 100 µM
RXF-631 renal
  TGI: > 100 µM
M19-MEL melanoma
  TGI: > 100 µM

## CCOC(=O)CNC(=O)c1[nH]cnc1/N=N/N(C)C
DLD-1 colon
  TGI: > 100 µM
DMS 273 small cell lung
  TGI: > 100 µM
DMS 114 small cell lung
  TGI: > 100 µM
M19-MEL melanoma
  TGI: > 100 µM

## Cc1ccc(S(=O)(=O)Nc2ccccc2C(C)(C)C)cc1
DLD-1 colon
  TGI: > 100 µM
KM20L2 colon
  TGI: 36.7 µM
DMS 273 small cell lung
  TGI: 38.5 µM
DMS 114 small cell lung
  TGI: 60.4 µM
M19-MEL melanoma
  TGI: 82.3 µM

## CCCCCCCCCC1CC(=O)OC23CCCC(=O)C12O3 (centres undefined)
DLD-1 colon
  TGI: > 100 µM
KM20L2 colon
  TGI: > 100 µM
DMS 273 small cell lung
  TGI: > 100 µM
DMS 114 small cell lung
  TGI: > 100 µM
M19-MEL melanoma
  TGI: > 100 µM

## O=C1C=CC2(O)OCC3C=C4O[C@@H]5OC6(CCCCC6)O[C@@H]5C4[C@@H]2[C@@H]13 (some centres undefined)
DLD-1 colon
  TGI: 50.6 µM
KM20L2 colon
  TGI: > 100 µM
DMS 273 small cell lung
  TGI: > 100 µM
DMS 114 small cell lung
  TGI: 69.2 µM
M19-MEL melanoma
  TGI: 54.9 µM

## CC[n+]1c(-c2ccccc2)c2cc(N)ccc2c2ccc(N)cc21
T-47D breast
  GI50: 0.323 µM
  TGI: 2.91 µM and 15 µM
MDA-MB-231 breast
  GI50: 2.11 µM
  TGI: 39.3 µM and 37.3 µM
MDA-MB-435
  GI50: 1.11 µM
  TGI: 2.56 µM and 12.5 µM
KM20L2 colon
  TGI: 25.9 µM
DU-145 prostate
  GI50: 2 µM
  TGI: 13.3 µM and 42 µM
DMS 273 small cell lung
  TGI: 10.7 µM
DMS 114 small cell lung
  TGI: 10.1 µM
MCF7 breast
  GI50: 1.07 µM
  TGI: 12.9 µM and 15.3 µM
M19-MEL melanoma
  TGI: 10.5 µM

## Cc1nc2sccn2c1C(=O)NNC(N)=S
DLD-1 colon
  TGI: > 100 µM
KM20L2 colon
  TGI: > 100 µM
DMS 273 small cell lung
  TGI: > 100 µM
DMS 114 small cell lung
  TGI: > 100 µM

## C/C(CCN(C)C)=N/O
DLD-1 colon
  TGI: 15.8 µM
KM20L2 colon
  TGI: 22.8 µM
DMS 273 small cell lung
  TGI: 18.3 µM
DMS 114 small cell lung
  TGI: 20.7 µM
M19-MEL melanoma
  TGI: 23 µM

## COC(=O)C1CCC(C)CC1=O (centres undefined)
DLD-1 colon
  TGI: > 100 µM
DMS 273 small cell lung
  TGI: > 100 µM
DMS 114 small cell lung
  TGI: > 100 µM
RXF-631 renal
  TGI: > 100 µM
M19-MEL melanoma
  TGI: > 100 µM

## CC(C)c1ccc(Cc2ccc(C(C)C)c(NC(=O)C(=O)Cc3cnc4ccccc4n3)c2C(C)C)c(C(C)C)c1NC(=O)C(=O)Cc1cnc2ccccc2n1
DLD-1 colon
  TGI: > 100 µM
KM20L2 colon
  TGI: > 100 µM
DMS 114 small cell lung
  TGI: > 100 µM
RXF-631 renal
  TGI: > 100 µM
M19-MEL melanoma
  TGI: > 100 µM

## CCOC(=O)C(Cc1ccc(N=NN(C)C)cc1)NC(=O)CC1c2ccccc2-c2ccccc21 (centres undefined)
DLD-1 colon
  TGI: > 100 µM
DMS 273 small cell lung
  TGI: > 100 µM
DMS 114 small cell lung
  TGI: > 100 µM
M19-MEL melanoma
  TGI: > 100 µM

## CCC(Oc1ccc(OC)c2c1C(=O)CCC2)C(=O)O (centres undefined)
DLD-1 colon
  TGI: > 100 µM
DMS 273 small cell lung
  TGI: > 100 µM
DMS 114 small cell lung
  TGI: > 100 µM
M19-MEL melanoma
  TGI: > 100 µM

## CN1CCCc2nc3ccccc3n2C1
DLD-1 colon
  TGI: > 100 µM
KM20L2 colon
  TGI: > 100 µM
DMS 273 small cell lung
  TGI: > 100 µM
DMS 114 small cell lung
  TGI: > 100 µM
M19-MEL melanoma
  TGI: > 100 µM

## O=C(Nc1nc(=S)[nH][nH]1)C(=O)C(c1cnc2ccc([N+](=O)[O-])cc2n1)[N+](=O)[O-] (centres undefined)
DLD-1 colon
  TGI: > 100 µM
KM20L2 colon
  TGI: > 100 µM
DMS 114 small cell lung
  TGI: > 100 µM
RXF-631 renal
  TGI: > 100 µM
M19-MEL melanoma
  TGI: > 100 µM

## CCOC(=O)C1C(c2ccc(Br)cc2)N(Cc2ccccc2)C(c2ccc(Br)cc2)C(C(=O)OC)S1(=O)=O (centres undefined)
DLD-1 colon
  TGI: > 100 µM
KM20L2 colon
  TGI: > 100 µM
DMS 273 small cell lung
  TGI: > 100 µM
DMS 114 small cell lung
  TGI: > 100 µM
M19-MEL melanoma
  TGI: > 100 µM

## N#Cc1ccccc1Sc1ccccc1N
DLD-1 colon
  TGI: > 100 µM
DMS 273 small cell lung
  TGI: > 100 µM
DMS 114 small cell lung
  TGI: > 100 µM
M19-MEL melanoma
  TGI: > 100 µM
